Where “and” joins values, the source holds several entries; their conditions need not be identical. Equal values may be shown once. Entries after “also recorded” stand apart in the source; their conditions may differ.
Assays:
[1] = test system: in vitro co-culture model of BBB (bEnd.3 cells and mouse primary astrocytes); experiment: NaF permeability across BBB co-culture (barrier integrity); type: in vitro ADME; conditions: Figure S1
Oct-3 = conditions: cited from earlier work; for IC50: read-out: IC50 for 10 µM Metformin Uptake, Oct-3, 10 µM metformin
Oct-2 = conditions: cited from earlier work; for IC50: read-out: IC50 for 10 µM Metformin Uptake, Oct-2, 10 µM metformin
Oct-1 = conditions: cited from earlier work; for IC50: read-out: IC50 for 10 µM Metformin Uptake, Oct-1, 10 µM metformin
bEnd.3 cells = experiment: MTS cell viability assay in bEnd.3 cells
mouse primary astrocytes = experiment: MTS cell viability assay in mouse primary astrocytes; type: cell-based; conditions: 3 h, concentrations used in permeability studies (MF 1, 10, 20 mM; mitoxantrone 25 µM; corticosterone 150 µM)
P-GP = molecular target: T1, P-GP (Homo sapiens, UniProt P08183); experiment: P-glycoprotein efflux transporter substrate assay (MDR1-MDCK transwell); type: in vitro ADME
T1 construct: host or cells: MDR1-MDCK (MDCK cells overexpressing MDR1)
T1 sequence (P08183 whole entry): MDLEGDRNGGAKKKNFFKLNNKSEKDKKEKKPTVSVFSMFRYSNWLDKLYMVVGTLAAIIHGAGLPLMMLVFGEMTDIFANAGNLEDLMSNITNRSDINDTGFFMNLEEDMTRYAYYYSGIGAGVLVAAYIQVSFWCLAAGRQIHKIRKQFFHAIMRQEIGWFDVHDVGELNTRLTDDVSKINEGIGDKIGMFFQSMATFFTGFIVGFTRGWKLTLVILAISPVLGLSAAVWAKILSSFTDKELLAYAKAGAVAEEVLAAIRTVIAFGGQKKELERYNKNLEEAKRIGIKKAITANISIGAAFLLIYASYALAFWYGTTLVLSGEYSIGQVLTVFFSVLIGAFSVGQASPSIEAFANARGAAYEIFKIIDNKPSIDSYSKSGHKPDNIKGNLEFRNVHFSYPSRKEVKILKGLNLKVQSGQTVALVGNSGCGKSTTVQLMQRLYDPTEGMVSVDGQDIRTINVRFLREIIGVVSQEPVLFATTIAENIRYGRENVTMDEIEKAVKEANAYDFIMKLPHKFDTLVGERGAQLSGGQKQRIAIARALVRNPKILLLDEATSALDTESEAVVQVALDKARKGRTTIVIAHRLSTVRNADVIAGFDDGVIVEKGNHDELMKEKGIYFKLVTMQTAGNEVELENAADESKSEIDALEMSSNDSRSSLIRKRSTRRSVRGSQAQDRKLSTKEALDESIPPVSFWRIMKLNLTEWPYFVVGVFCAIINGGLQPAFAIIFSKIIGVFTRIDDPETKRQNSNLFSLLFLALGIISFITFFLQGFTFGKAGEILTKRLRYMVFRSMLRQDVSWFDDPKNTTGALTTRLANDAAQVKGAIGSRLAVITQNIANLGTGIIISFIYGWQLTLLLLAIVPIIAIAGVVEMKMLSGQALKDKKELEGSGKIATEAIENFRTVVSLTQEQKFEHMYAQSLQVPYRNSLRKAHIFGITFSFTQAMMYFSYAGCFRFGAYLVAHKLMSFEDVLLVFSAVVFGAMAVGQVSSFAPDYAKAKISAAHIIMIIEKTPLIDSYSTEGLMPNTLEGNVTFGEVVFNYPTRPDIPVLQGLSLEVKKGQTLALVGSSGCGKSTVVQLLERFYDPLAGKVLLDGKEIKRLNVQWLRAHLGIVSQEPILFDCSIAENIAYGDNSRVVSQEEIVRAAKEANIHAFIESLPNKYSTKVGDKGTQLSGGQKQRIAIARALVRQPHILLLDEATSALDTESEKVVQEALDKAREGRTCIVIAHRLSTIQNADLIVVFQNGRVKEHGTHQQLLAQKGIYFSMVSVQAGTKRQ
Description: (§1) For P-GP efflux assay, MDR1-MDCK 12-well transport assay (MB Biosciences LLC, Natick, MA, USA) was used. The cells were maintained in high glucose DMEM media supplied with 10% FBS, non-essential amino acid, penicillin/streptomycin, L-glutamine, and colchicine as recommended by the supplier. After the shipping medium was changed to a fresh MDR1-MDCK cell culture medium, the plate was kept in the incubator for 24 h before performing the experiment. […] The inhibitor was present on both sides of the compartments during pre-incubation of 30 min and during the transport experiment. After 120 min of incubation at 37 °C, samples were collected from the basolateral chamber and quantified by LC-MS/MS method. […] The permeability coefficient (PC, cm/s) was calculated using the published literature method. The PC value from apical (A) to basolateral (B) compartment in the presence and absence of CsA was used to calculate the unidirectional flux ratio (UFR), which is defined by the following equation:(3) UFR=PC, A−to−B+CsA/PC,A−to−B−CsA

P-gp (MDR1) = molecular target: T2, P-gp (MDR1) (Homo sapiens, UniProt P08183); experiment: as above; type: in vitro ADME; conditions: dog, MDR1-MDCK, 10 µM MF, 120 min
T2 construct: host or cells: MDR1-MDCK (MDCK cells overexpressing MDR1)
T2 sequence (P08183 whole entry): as above
Description: as §1

hOCT2 = conditions: read-out: apparent IC50 of MF for uptake of tracer [14C] MF; cited from earlier work
[2] = human subjects; cited from earlier work
[3] = 3 h, concentrations used in permeability studies (MF 1, 10, 20 mM; mitoxantrone 25 µM; corticosterone 150 µM)
[4] = single transporter-expressing cell line, read-out: apparent Km of saturable MF uptake

## O=C([O-])c1ccccc1-c1c2ccc(=O)cc-2oc2cc([O-])ccc12.[Na+].[Na+] [NaF, sodium fluorescein]
[1]
  PC of NaF compared with [14C] sucrose: no statistically significant difference

## C[C@]12C[C@H](O)[C@H]3[C@@H](CCC4=CC(=O)CC[C@@]43C)[C@@H]1CC[C@@H]2C(=O)CO [Corticosterone]
Oct-3
  IC50: 0.2 µM
Oct-2
  IC50: 1.3 µM
Oct-1
  IC50: 3.2 µM
bEnd.3 cells; [3]
  toxicity to cells (MTS cell viability): not toxic
Mouse primary astrocytes
  toxicity to cells (MTS cell viability): not toxic

## CN(C)C(=N)N=C(N)N [MF, metformin]
Oct-3; [4]
  Km: 2600 µM
P-GP; MDR1-MDCK, 10 µM MF, 120 min, with CsA 10 µM
  Metformin PC, A > B, +CsA: 3.28 ± 0.06 1 × 10^−7 cm/s
P-GP; P-GP overexpressing cell line
  interaction with the efflux transporter P-GP: does not interact
P-gp (MDR1)
  Papp B→A at 120 min, 10 µM: 0.163 ± 0.006 ×10⁻⁶ cm/s
P-gp (MDR1); without CsA
  Papp A→B at 120 min, 10 µM: 0.258 ± 0.018 ×10⁻⁶ cm/s
hOCT2
  IC50: ~2000 µM
Oct-2; [4]
  Km: 600 µM
Oct-1; [4]
  Km: 3100 µM
bEnd.3 cells; [3]
  toxicity to cells (MTS cell viability): not toxic
[2]
  steady-state concentration: 1.8 µg/mL and 13 µM
Mouse primary astrocytes
  toxicity to cells (MTS cell viability): not toxic

## C[n+]1ccc(-c2ccccc2)cc1 [MPP+]
bEnd.3 cells; 5 mM, 4 h incubation
  toxicity to cells (MTS cell viability): toxic; also recorded: significantly affected

## O=C1c2c(O)ccc(O)c2C(=O)c2c(NCCNCCO)ccc(NCCNCCO)c21 [Mitoxantrone]
Oct-3
  IC50: 174 µM
Oct-2
  IC50: 135 µM
Oct-1; estimated IC50
  IC50 for Oct1 lower than for Oct2 and Oct3 (selectivity): 40–60 fold
Oct-1; mitoxantrone at 25 µM, based on Table 1
  inhibition of the respective transporter (Oct1): > 80%
Oct-1
  IC50: 3 µM
bEnd.3 cells; [3]
  toxicity to cells (MTS cell viability): not toxic
Mouse primary astrocytes
  toxicity to cells (MTS cell viability): not toxic

## CNCCCN1c2ccccc2CCc2ccccc21 [desipramine]
bEnd.3 cells; 200 µM, 4 h incubation
  toxicity to cells (MTS cell viability): toxic; also recorded: significantly affected
bEnd.3 cells; 100 µm, 4 h incubation
  toxicity to cells (MTS cell viability): significantly affected

Source: PMC10220878 (Pharmaceutics, 2023)
